According to ChEMBL document CHEMBL1134999, “Synthesis and cytotoxic activity of a new potent daunomycinone derivative” (Bioorg Med Chem Lett, 2002):

How the values were obtained:
KB 3-1 = assay: In vitro cytotoxic activity was evaluated using the human epidermoid carcinoma cell line KB-3-1; type: functional, cell-based
L1210 = assay: In vitro cytotoxic activity was evaluated using the murine leukemia L1210 cell line; type: functional, cell-based; details: Mus musculus
MES-SA [1] = assay: In vitro cytotoxic activity was evaluated using the MES-SA multidrug-resistant subline MES-SA/Dx5; type: functional, cell-based; details: Homo sapiens
SK-MES-1 = assay: Resistance factor (RF), ratio between the IC50 on the resistant cells and the IC50 on the corresponding sensitive cells of MES cell line; type: functional, Homo sapiens
KB [2] = assay: In vitro cytotoxic activity was evaluated using the KB-3-1 resistant to adriamycin (ADR) subline KB-A1; type: functional, cell-based; details: Homo sapiens
MES-SA [3] = assay: In vitro cytotoxic activity was evaluated using the human uterine sarcoma cell line MES-SA; type: functional, cell-based
KB [4] = assay: Resistance factor (RF), ratio between the IC50 on the resistant cells and the IC50 on the corresponding sensitive cells of KB cell line; type: functional, Homo sapiens

Row | SMILES | IC50 (KB 3-1) | IC50 (L1210) | IC50 (MES-SA [1]) | Resistance factor (SK-MES-1) | IC50 (KB [2]) | IC50 (MES-SA [3]) | Resistance factor (KB [4])
1 | COc1cccc2c1C(=O)c1c(O)c3c(c(O)c1C2=O)C[C@@](O)(C(C)=O)C[C@@H]3OC1CC(Br)C(N=[N+]=[N-])C(C)O1 (some centres not stated) | 800 nM | 500 nM | 2000 nM | 0.28 | 900 nM | 7000 nM | 1.1
2 | COc1cccc2c1C(=O)c1c(O)c3c(c(O)c1C2=O)C[C@@](O)(C(C)=O)C[C@@H]3O[C@H]1C[C@H](N)[C@H](O)[C@H](C)O1 [DAUNORUBICIN] |  | 40 nM | 3000 nM | 42.8 |  | 70 nM | 295.7
3 | COc1cccc2c1C(=O)c1c(O)c3c(c(O)c1C2=O)C[C@@](O)(C(=O)CO)C[C@@H]3O[C@H]1C[C@H](N)[C@H](O)[C@H](C)O1 [DOXORUBICIN] |  | 25 nM | 12000 nM | 48 |  | 250 nM | 333.8
